Data: ChEMBL document CHEMBL4304811, “Development of a Water-Soluble Indolylmaleimide Derivative IM-93 Showing Dual Inhibition of Ferroptosis and NETosis” (ACS Med Chem Lett, 2019)

Assays:
[1] = system: Tyrosine-protein kinase ABL1 (Homo sapiens), P00519 [H396P]; test: Binding affinity to human non-phosphorylated ABL1 H396P mutant (S229 to K512 residues) expressed in mammalian expression system assessed as residual binding level at 10 uM by Kinomescan method relative to control
[2] = target: Activin receptor type-2B (Homo sapiens) (UniProt Q13705); test: Binding affinity to wild-type human ACVR2B (H169 to D504 residues) expressed in bacterial expression system assessed as residual binding level at 10 uM by Kinomescan method relative to control
[3] = target: RAC-beta serine/threonine-protein kinase (Homo sapiens) (UniProt P31751); test: Binding affinity to wild-type human partial length AKT2 expressed in bacterial expression system assessed as residual binding level at 10 uM by Kinomescan method relative to control
[4] = target: Aurora kinase B (Homo sapiens) (UniProt Q96GD4); test: Binding affinity to wild-type human partial length AURKB (D25 to A303 residues) expressed in mammalian expression system assessed as residual binding level at 10 uM by Kinomescan method relative to control
[5] = target: BMP-2-inducible protein kinase (Homo sapiens) (UniProt Q9NSY1); test: Binding affinity to wild-type human partial length BIKE (S34 to N329 residues) expressed in bacterial expression system assessed as residual binding level at 10 uM by Kinomescan method relative to control
[6] = target: Dual specificity tyrosine-phosphorylation-regulated kinase 1B (Homo sapiens) (UniProt Q9Y463); test: Binding affinity to wild-type human full length DYRK1B (M1 to S629 residues) expressed in bacterial expression system assessed as residual binding level at 10 uM by Kinomescan method relative to control
[7] = system: Epidermal growth factor receptor (Homo sapiens), P00533 [T790M]; test: Binding affinity to human partial length EGFR T790M mutant (R669 to G1022 residues) expressed in mammalian expression system assessed as residual binding level at 10 uM by Kinomescan method relative to control
[8] = target: Tyrosine-protein kinase Fes/Fps (Homo sapiens) (UniProt P07332); test: Binding affinity to wild-type human partial length FES (I527 to R822 residues) expressed in bacterial expression system assessed as residual binding level at 10 uM by Kinomescan method relative to control
[9] = target: Fibroblast growth factor receptor 4 (Homo sapiens) (UniProt P22455); test: Binding affinity to wild-type human partial length FGFR4 (G402 to E713 residues) expressed in bacterial expression system assessed as residual binding level at 10 uM by Kinomescan method relative to control
Fibroblast growth factor receptor 4 (Homo sapiens), sequence (P22455 22-802 limits assumed): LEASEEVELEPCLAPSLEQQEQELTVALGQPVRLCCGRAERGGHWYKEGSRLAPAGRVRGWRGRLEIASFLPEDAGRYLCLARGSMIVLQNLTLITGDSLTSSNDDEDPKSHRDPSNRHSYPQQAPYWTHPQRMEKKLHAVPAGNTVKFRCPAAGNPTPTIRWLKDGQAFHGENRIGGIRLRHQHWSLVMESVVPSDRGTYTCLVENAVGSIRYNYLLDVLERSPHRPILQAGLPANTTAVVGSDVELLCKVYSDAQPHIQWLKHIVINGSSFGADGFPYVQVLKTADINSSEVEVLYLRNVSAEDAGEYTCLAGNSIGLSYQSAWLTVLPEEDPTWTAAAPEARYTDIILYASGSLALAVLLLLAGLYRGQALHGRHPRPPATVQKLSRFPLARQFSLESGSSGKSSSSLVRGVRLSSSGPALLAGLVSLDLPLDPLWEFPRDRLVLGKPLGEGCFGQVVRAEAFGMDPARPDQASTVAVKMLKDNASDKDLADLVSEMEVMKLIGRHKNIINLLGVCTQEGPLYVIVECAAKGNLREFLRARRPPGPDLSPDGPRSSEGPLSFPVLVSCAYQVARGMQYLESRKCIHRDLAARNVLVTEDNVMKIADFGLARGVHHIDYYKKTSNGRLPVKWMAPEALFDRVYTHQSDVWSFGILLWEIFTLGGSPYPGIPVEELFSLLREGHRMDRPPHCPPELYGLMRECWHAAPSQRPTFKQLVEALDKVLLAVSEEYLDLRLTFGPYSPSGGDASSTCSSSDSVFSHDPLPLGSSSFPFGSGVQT

[10] = target: Vascular endothelial growth factor receptor 1 (Homo sapiens) (UniProt P17948); test: Binding affinity to wild-type human partial length FLT1 (R781 to F1239 residues) expressed in bacterial expression system assessed as residual binding level at 10 uM by Kinomescan method relative to control
[11] = system: Leucine-rich repeat serine/threonine-protein kinase 2 (Homo sapiens), Q5S007 [G2019S]; test: Binding affinity to human partial length LRRK2 G2019S mutant (H970 to E2527 residues) expressed in mammalian expression system assessed as residual binding level at 10 uM by Kinomescan method relative to control
[12] = target: Mitogen-activated protein kinase kinase kinase 13 (Homo sapiens) (UniProt O43283); test: Binding affinity to wild-type human full length LZK (M1 to W966 residues) expressed in mammalian expression system assessed as residual binding level at 10 uM by Kinomescan method relative to control
[13] = target: Mitogen-activated protein kinase kinase kinase 10 (Homo sapiens) (UniProt Q02779); test: Binding affinity to wild-type human partial length MLK2 (V52 to W380 residues) expressed in bacterial expression system assessed as residual binding level at 10 uM by Kinomescan method relative to control
Mitogen-activated protein kinase kinase kinase 10 (Homo sapiens), sequence (Q02779 whole entry, looked up, the tested form may be a part): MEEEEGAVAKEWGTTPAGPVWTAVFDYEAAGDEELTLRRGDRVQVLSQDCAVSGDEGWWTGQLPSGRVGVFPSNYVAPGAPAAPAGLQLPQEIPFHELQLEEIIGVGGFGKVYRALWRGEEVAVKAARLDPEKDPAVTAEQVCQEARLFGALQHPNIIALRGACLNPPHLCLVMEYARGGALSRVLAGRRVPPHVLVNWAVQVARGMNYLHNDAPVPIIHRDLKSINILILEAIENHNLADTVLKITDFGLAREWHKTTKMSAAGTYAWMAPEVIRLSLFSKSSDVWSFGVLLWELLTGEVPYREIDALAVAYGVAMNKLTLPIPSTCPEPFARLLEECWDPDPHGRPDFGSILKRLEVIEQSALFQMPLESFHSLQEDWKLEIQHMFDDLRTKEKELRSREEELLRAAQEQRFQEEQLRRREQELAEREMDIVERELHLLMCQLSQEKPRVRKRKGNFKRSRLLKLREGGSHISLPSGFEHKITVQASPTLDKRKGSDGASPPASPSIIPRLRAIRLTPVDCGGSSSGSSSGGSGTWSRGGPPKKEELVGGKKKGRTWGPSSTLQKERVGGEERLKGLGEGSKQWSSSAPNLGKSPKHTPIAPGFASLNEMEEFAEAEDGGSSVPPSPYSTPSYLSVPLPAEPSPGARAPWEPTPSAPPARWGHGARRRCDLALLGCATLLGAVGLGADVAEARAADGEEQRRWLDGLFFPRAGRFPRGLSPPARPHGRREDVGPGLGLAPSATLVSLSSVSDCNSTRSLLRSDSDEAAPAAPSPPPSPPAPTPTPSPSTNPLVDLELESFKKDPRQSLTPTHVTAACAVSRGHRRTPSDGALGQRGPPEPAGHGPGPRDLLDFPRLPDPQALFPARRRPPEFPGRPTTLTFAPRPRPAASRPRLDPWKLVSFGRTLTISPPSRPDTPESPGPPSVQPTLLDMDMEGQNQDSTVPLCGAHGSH

[14] = target: Serine/threonine-protein kinase 26 (Homo sapiens) (UniProt Q9P289); test: Binding affinity to wild-type human full length MST4 (M1 to P416 residues) expressed in mammalian expression system assessed as residual binding level at 10 uM by Kinomescan method relative to control
Serine/threonine-protein kinase 26 (Homo sapiens), sequence (Q9P289 2-416 limits assumed): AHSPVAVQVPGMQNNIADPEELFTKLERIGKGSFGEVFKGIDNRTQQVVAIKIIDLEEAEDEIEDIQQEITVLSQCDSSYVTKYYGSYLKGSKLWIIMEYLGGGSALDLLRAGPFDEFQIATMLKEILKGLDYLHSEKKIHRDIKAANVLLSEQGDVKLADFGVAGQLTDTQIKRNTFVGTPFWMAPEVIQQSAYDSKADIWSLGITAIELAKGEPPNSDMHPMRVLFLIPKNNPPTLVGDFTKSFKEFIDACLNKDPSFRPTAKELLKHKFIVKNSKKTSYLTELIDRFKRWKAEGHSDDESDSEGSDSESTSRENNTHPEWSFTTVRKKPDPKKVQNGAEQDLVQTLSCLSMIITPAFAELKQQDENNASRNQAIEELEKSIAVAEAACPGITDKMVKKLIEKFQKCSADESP

[15] = target: Myosin-IIIa (Homo sapiens) (UniProt Q8NEV4); test: Binding affinity to wild-type human partial length MYO3A (M1 to K338 residues) expressed in bacterial expression system assessed as residual binding level at 10 uM by Kinomescan method relative to control
Myosin-IIIa (Homo sapiens), sequence (Q8NEV4 whole entry, the tested form may be a part): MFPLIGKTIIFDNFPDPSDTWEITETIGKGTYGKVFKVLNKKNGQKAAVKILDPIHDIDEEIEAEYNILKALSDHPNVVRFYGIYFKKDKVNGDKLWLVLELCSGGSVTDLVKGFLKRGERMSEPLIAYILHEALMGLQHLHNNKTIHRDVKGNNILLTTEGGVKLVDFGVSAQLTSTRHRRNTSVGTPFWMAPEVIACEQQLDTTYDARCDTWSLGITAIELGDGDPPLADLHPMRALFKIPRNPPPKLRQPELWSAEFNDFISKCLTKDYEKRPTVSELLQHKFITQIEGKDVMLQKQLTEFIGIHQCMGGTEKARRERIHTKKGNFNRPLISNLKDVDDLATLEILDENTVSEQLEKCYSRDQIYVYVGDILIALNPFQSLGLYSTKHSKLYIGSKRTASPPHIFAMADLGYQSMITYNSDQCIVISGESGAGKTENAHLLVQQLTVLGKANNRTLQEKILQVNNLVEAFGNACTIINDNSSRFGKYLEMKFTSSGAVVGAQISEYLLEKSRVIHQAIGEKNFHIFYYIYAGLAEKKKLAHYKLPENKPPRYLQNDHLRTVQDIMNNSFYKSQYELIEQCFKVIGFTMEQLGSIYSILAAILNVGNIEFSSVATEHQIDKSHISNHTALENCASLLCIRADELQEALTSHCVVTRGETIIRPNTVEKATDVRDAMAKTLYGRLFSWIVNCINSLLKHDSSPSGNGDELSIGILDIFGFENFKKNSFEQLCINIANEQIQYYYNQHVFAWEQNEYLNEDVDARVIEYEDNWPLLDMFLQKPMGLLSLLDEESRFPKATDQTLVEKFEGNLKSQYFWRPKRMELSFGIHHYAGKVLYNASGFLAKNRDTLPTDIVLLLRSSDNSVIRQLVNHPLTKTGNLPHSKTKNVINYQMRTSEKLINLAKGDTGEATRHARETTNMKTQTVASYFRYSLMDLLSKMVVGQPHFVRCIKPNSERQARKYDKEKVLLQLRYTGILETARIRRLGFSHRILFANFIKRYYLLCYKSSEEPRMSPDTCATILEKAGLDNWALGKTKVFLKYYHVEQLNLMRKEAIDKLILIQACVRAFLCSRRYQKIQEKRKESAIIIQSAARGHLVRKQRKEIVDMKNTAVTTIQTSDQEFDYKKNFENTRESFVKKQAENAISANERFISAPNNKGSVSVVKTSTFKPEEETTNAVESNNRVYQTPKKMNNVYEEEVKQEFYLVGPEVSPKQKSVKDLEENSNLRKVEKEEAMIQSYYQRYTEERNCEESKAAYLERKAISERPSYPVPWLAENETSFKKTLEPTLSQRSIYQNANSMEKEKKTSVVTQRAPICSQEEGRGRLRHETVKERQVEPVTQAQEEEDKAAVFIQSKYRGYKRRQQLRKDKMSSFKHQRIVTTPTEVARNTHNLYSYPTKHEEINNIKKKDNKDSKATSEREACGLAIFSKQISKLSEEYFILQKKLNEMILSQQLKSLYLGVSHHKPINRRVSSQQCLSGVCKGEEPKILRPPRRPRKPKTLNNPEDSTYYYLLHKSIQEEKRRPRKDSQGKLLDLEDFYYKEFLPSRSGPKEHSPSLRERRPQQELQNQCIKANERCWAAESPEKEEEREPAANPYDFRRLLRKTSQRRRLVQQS

[16] = target: Serine/threonine-protein kinase NIM1 (Homo sapiens) (UniProt Q8IY84); test: Binding affinity to wild-type human partial length NIM1 (Q44 to N355 residues) expressed in mammalian expression system assessed as residual binding level at 10 uM by Kinomescan method relative to control
[17] = target: Phosphatidylinositol 4-phosphate 3-kinase C2 domain-containing subunit beta (Homo sapiens) (UniProt O00750); test: Binding affinity to wild-type human partial length PIK3C2B (M1 to L1634 residues) expressed in mammalian expression system assessed as residual binding level at 10 uM by Kinomescan method relative to control
[18] = system: Phosphatidylinositol 4,5-bisphosphate 3-kinase catalytic subunit alpha isoform (Homo sapiens), P42336 [E542K]; test: Binding affinity to human partial length PIK3CA E542K mutant (R108 to N1068 residues) expressed in mammalian expression system assessed as residual binding level at 10 uM by Kinomescan method relative to control
[19] = system: Phosphatidylinositol 4,5-bisphosphate 3-kinase catalytic subunit alpha isoform (Homo sapiens), P42336 [H1047Y]; test: Binding affinity to human partial length PIK3CA H1047Y mutant (R108 to N1068 residues) expressed in mammalian expression system assessed as residual binding level at 10 uM by Kinomescan method relative to control
[20] = target: Protein kinase C epsilon type (Homo sapiens) (UniProt Q02156); test: Binding affinity to wild-type human partial length PRKCE (A378 to P737 residues) expressed in mammalian expression system assessed as residual binding level at 10 uM by Kinomescan method relative to control
Protein kinase C epsilon type (Homo sapiens), sequence (Q02156 whole entry, the tested form may be a part): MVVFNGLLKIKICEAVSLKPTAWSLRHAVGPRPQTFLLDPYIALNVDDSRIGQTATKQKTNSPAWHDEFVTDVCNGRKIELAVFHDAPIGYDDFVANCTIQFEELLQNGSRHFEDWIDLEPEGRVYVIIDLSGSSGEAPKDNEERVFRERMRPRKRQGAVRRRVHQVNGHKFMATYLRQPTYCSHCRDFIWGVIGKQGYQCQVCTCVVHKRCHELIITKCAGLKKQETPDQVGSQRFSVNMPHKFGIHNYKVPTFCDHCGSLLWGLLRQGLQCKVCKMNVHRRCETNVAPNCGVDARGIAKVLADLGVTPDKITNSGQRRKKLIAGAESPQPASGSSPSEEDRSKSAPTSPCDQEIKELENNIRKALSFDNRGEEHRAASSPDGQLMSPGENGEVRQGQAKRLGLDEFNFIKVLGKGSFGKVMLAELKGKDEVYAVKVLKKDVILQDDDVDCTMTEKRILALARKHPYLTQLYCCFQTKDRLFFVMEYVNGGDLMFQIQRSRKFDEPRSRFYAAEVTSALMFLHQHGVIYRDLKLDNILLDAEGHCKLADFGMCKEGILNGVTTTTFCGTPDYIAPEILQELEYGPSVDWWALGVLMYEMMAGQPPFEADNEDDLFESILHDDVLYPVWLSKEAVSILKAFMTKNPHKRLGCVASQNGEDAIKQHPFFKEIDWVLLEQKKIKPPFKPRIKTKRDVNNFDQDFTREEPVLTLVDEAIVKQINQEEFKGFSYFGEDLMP

[21] = target: Serine/threonine-protein kinase Sgk3 (Homo sapiens) (UniProt Q96BR1); test: Binding affinity to wild-type human partial length SGK3 (M119 to L496 residues) expressed in mammalian expression system assessed as residual binding level at 10 uM by Kinomescan method relative to control
[22] = target: Tyrosine-protein kinase Srms (Homo sapiens) (UniProt Q9H3Y6); test: Binding affinity to wild-type human partial length SRMS (L208 to P488 residues) expressed in mammalian expression system assessed as residual binding level at 10 uM by Kinomescan method relative to control
[23] = target: Serine/threonine-protein kinase 33 (Homo sapiens) (UniProt Q9BYT3); test: Binding affinity to wild-type human full length STK33 (M1 to L514 residues) expressed in bacterial expression system assessed as residual binding level at 10 uM by Kinomescan method relative to control
Serine/threonine-protein kinase 33 (Homo sapiens), sequence (Q9BYT3 whole entry, looked up, the tested form may be a part): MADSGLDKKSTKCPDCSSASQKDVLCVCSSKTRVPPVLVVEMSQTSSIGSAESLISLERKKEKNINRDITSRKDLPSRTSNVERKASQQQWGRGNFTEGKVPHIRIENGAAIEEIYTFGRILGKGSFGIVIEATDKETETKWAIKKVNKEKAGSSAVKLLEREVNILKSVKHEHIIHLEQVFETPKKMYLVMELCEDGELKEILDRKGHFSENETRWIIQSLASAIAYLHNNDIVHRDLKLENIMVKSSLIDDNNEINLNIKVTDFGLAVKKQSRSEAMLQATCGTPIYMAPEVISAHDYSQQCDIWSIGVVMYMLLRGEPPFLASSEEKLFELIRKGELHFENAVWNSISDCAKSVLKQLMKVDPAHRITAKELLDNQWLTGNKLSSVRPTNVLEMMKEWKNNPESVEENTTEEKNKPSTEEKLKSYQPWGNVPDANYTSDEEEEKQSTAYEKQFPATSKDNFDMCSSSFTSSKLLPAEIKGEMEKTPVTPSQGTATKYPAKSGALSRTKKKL

[24] = target: Serine/threonine-protein kinase TAO2 (Homo sapiens) (UniProt Q9UL54); test: Binding affinity to wild-type human partial length TAOK2 (M1 to A320 residues) expressed in mammalian expression system assessed as residual binding level at 10 uM by Kinomescan method relative to control
[25] = Stability of compound in D2O at 0.012 mmol followed by H2O2 addition measured after 2 hrs by 1H-NMR spectroscopy; type: physicochemical

CC(C)N1C(=O)C(NCCCN(C)C)=C(c2cn(C)c3ccccc23)C1=O.Cl
Activity [1]: 90%
Activity [2]: 96%
Activity [3]: 100%
Activity [4]: 84%
Activity [5]: 94%
Activity [6]: 93%
Activity [7]: 91%
Activity [8]: 100%
Activity [9]: 100%
Activity [10]: 82%
Activity [11]: 91%
Activity [12]: 100%
Activity [13]: 83%
Activity [14]: 83%
Activity [15]: 89%
Activity [16]: 90%
Activity [17]: 81%
Activity [18]: 87%
Activity [19]: 94%
Activity [20]: 94%
Activity [21]: 89%
Activity [22]: 82%
Activity [23]: 100%
Activity [24]: 94%
Stability [25]: Stable
